From PMC10831936 (iScience, 2024)
“Also recorded” adds a separate entry of the source. Like-named read-outs stand apart in the source and are kept apart here.

What was measured:
ERBB4 [1] = target: ERBB4 (Homo sapiens, UniProt Q15303); assay: ERBBprofiler barcoded split TEV assay, ERBB4; settings: ERBB4 UAS (split TEV) IC50, PC12 cells; constant EGF 30 ng/mL, EGFld 10 ng/mL, serotonin 1 μM; 6 h; barcode readout; relative IC50
[2] = tested on: ERBB receptors, HTR2A, and downstream signaling pathways; assay: ERBBprofiler multiplexed barcoded assay, overall statements across all receptor batches and sensors; settings: for CRE sensor response at high compound concentration (barcoded): 10 μM compound, PC12 cells, stimulation mix
ERBB4 [3] = tested on: ERBB4; set-up: method as in Nam et al., 2011; settings: tyrosine kinase assay kit (Panvera); ref Nam et al., 2011; read-out: IC50_Literature, ERBB4; cited from earlier work
[4] = tested on: Calu-3 and NCI-H1781 cells; set-up: method as in Dong et al., 2019; settings: growth of Calu-3 and NCI-H1781 cells; ref Dong et al., 2019; read-out: IC50_Literature, ERBB2; cited from earlier work
HTR2A EGR1p = assay: ERBBprofiler barcoded EGR1p pathway sensor, HTR2A co-transfected; settings: Rattus norvegicus, PC-12, 6 h, read-out: HTR2A EGR1p IC50
HTR2A NFAT = assay: ERBBprofiler barcoded NFAT pathway sensor, HTR2A co-transfected; settings: Rattus norvegicus, PC-12, 6 h, read-out: HTR2A NFAT IC50
CRE sensor = CRE sensor only luciferase assay in PC12 cells; format: cell-based, Rattus norvegicus
Procedure: 50,000 PC12 cells were seeded per 96-well onto poly-L-lysin (PLL)-coated plates and transfected the following day (day in vitro 1, DIV1) with assay plasmids using Lipofectamine 3000 (Thermo Fisher Scientific). […] For pathway assays, the receptor plasmids (15 ng/well) and pathway reporter plasmids (15 ng/well) pEGR1p-luc2 for monitoring MAPK signaling, pCRE-CMVmin-luc2 for monitoring cAMP/Ca^2+ signaling, or p6xNFAT-CMVmin-luc2 for Ca^2+ signaling were used. Transient transfections were conducted according to the manufacturer’s instructions. On DIV2, cells were starved in medium containing 1% FCS for 16 h. […] In the case of antagonist assays, compounds were added at increasing doses together with the stimulus. Cells were lysed in 1x passive lysis buffer (Promega) and subjected to a firefly luciferase assay using a self-made substrate for firefly luciferase.[100] Luciferase activity was analyzed in a Mithras LB 940 Multimode Microplate Reader (Berthold Technologies). All assays were run in 96-well plates using six replicates per condition.

EGFR EGR1p = assay: ERBBprofiler barcoded EGR1p pathway sensor, EGFR co-transfected; settings: Rattus norvegicus, PC-12, 6 h, read-out: EGFR EGR1p IC50
ERBB4 NFAT = assay: ERBBprofiler barcoded NFAT pathway sensor, ERBB4 co-transfected; format: cell-based, Rattus norvegicus; settings: PC12 cells; constant EGF 30 ng/mL, EGFld 10 ng/mL, serotonin 1 μM; 6 h; barcode readout; relative IC50
NCI-H1975 cells = tested on: NCI-H1975 cells; set-up: method as in Dong et al., 2019; settings: growth of NCI-H1975 cells; ref Dong et al., 2019; read-out: IC50_Literature, EGFR; cited from earlier work
HTR2A = HTR2A (Homo sapiens, UniProt P28223); assay: ERBBprofiler barcoded split TEV assay, HTR2A
Chain of HTR2A (P28223 whole entry): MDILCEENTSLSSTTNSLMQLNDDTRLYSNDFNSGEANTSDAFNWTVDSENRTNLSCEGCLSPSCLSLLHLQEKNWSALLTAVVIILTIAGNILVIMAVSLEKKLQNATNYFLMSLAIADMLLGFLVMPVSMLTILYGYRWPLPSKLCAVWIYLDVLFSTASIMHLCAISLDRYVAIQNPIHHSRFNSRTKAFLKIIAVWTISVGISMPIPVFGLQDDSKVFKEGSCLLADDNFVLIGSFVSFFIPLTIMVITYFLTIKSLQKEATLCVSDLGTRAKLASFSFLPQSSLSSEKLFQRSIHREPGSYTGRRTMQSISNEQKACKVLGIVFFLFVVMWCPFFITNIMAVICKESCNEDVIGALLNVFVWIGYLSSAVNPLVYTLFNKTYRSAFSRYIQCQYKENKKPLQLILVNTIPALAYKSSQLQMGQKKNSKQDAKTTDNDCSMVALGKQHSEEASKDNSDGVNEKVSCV

ERBB2/3 EGR1p = assay: ERBBprofiler barcoded EGR1p pathway sensor, ERBB2/3 co-transfected; settings: Rattus norvegicus, PC-12, 6 h, read-out: ERBB2/3 EGR1p IC50
cAMP = assay: GloSensor cAMP assay in PC12 cells; format: cell-based, Rattus norvegicus
Procedure: The GloSensor cAMP assay was conducted with the same parameters (50,000 PC12 cells per 96-well) as described above for the firefly luciferase assay, with however, three differences. Specifically, (1) 30 ng/well of the pGloSensor-22F plasmid (Promega, E2301) was used for transfection, and (2) on DIV3, cells were equilibrated in assay medium containing a 2% v/v dilution of D-luciferin (Synchem, bc219) for 2 h at 37°C before (3) the treatment of compounds for 15 min and lysis in 1x passive lysis buffer (Promega) and luciferase activity measurement.

ERBB2/3 = ERBB2/3 (Homo sapiens, UniProt P04626+P21860); assay: ERBBprofiler barcoded split TEV assay, ERBB2/3
Chain of ERBB2/3 (P04626 23-1255): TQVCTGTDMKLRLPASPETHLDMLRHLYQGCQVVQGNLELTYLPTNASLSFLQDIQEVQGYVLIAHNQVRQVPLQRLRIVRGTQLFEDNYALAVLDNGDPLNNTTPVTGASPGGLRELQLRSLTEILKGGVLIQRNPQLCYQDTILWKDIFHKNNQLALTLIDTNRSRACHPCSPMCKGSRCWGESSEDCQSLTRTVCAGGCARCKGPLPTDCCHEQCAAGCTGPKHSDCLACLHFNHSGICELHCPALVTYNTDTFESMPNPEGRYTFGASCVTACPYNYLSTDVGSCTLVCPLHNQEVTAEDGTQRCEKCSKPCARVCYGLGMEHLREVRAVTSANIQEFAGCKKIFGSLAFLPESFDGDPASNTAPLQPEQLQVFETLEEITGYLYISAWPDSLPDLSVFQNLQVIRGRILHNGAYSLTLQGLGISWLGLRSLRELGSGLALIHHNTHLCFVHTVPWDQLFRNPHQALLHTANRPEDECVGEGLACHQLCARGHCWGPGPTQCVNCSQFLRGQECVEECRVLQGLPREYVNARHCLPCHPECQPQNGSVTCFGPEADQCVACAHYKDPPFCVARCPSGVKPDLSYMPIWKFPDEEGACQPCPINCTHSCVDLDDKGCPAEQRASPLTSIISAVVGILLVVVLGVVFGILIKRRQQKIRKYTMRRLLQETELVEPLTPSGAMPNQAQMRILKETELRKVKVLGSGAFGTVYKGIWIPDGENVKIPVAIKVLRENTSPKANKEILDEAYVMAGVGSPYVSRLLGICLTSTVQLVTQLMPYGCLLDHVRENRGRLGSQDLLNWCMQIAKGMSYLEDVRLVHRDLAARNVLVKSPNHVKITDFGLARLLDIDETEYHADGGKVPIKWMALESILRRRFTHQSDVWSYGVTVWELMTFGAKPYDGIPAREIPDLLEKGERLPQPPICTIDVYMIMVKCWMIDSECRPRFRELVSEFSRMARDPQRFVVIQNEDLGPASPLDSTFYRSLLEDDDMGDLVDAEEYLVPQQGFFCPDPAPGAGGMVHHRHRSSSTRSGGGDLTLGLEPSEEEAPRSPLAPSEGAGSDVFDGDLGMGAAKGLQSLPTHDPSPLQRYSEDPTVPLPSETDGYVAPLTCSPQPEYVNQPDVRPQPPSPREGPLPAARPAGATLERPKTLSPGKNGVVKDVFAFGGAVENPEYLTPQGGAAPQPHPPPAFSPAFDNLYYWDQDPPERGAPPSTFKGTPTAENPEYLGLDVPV
Chain of ERBB2/3 (P21860 20-1342): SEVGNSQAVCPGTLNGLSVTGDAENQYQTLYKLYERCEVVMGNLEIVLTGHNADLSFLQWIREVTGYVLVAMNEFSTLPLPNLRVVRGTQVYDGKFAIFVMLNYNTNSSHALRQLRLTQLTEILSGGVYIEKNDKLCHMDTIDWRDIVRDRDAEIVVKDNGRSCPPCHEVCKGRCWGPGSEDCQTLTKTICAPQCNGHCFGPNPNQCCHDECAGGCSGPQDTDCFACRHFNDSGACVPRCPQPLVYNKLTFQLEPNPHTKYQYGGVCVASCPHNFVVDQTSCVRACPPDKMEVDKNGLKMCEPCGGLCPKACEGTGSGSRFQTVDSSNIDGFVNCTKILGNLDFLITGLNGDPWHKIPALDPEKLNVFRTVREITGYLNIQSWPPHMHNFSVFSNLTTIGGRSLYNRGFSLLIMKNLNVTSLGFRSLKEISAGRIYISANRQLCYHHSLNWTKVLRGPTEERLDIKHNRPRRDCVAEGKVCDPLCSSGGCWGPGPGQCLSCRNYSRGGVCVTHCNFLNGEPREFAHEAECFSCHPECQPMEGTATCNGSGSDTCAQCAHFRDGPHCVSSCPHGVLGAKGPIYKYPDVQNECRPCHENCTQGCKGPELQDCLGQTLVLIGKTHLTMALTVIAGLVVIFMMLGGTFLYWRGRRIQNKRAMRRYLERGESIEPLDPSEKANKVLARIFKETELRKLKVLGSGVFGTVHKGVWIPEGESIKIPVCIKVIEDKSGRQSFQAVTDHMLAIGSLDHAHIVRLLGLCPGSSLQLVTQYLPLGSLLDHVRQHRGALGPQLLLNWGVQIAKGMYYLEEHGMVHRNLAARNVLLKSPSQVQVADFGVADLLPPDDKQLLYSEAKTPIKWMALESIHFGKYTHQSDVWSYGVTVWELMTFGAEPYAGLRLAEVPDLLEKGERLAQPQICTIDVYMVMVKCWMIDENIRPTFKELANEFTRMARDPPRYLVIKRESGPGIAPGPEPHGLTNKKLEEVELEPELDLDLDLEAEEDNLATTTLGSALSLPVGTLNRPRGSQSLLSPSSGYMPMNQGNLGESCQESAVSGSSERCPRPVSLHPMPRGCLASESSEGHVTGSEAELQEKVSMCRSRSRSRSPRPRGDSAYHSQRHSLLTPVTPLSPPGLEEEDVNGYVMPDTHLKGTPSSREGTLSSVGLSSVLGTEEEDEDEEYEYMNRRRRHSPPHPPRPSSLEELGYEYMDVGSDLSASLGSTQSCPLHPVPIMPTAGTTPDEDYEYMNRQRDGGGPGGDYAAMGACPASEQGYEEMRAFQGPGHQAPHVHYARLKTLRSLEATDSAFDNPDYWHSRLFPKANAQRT

EGFR NFAT = assay: ERBBprofiler barcoded NFAT pathway sensor, EGFR co-transfected; format: cell-based, Rattus norvegicus
calcium = assay: Fluo-4 AM calcium assay in PC12 cells; format: cell-based, Rattus norvegicus; settings: stimulation mix
Procedure: On DIV2, cells were pre-equilibrated in 10 μM Fluo-4 a.m. (Thermo Fisher Scientific, F14201) away from light for 1 h at 37°C. Next, cells were incubated in the indicator-free starvation medium to allow de-esterification for 20 min away from light at 37°C. Background fluorescence was then measured using the BMG POLARstar Optima Microplate Reader prior to adding the treatments and continuously measuring the fluorescence for the next 30 min. Fluorescence was measured using the bottom optics.

ERBB4 EGR1p = assay: ERBBprofiler barcoded EGR1p pathway sensor, ERBB4 co-transfected; settings: Rattus norvegicus, PC-12, 6 h, read-out: ERBB4 EGR1p IC50
ERBB2/3 NFAT = assay: ERBBprofiler barcoded NFAT pathway sensor, ERBB2/3 co-transfected; format: cell-based, Rattus norvegicus; settings: PC12 cells; constant EGF 30 ng/mL, EGFld 10 ng/mL, serotonin 1 μM; 6 h; barcode readout; relative IC50
EGFR [5] = target: EGFR (Homo sapiens, UniProt P00533); assay: ERBBprofiler barcoded split TEV assay, EGFR
EGFR [6] = tested on: EGFR; set-up: method as in Hasako et al., 2018; settings: phospho-WB in NIH/3T3 cell lines; ref Hasako et al., 2018; read-out: IC50_Literature, EGFR; cited from earlier work
ERBB4 [7] = tested on: ERBB4; set-up: method as in Hasako et al., 2018; settings: biochemical kinase activity assay by Carna Biosciences; ref Hasako et al., 2018; read-out: IC50_Literature, ERBB4; cited from earlier work
ERBB2 = tested on: ERBB2; set-up: method as in Hasako et al., 2018; settings: biochemical kinase activity assay by Carna Biosciences; ref Hasako et al., 2018; read-out: IC50_Literature, ERBB2; cited from earlier work

Chain of ERBB4 (Homo sapiens, UniProt Q15303) (Q15303 26-1308): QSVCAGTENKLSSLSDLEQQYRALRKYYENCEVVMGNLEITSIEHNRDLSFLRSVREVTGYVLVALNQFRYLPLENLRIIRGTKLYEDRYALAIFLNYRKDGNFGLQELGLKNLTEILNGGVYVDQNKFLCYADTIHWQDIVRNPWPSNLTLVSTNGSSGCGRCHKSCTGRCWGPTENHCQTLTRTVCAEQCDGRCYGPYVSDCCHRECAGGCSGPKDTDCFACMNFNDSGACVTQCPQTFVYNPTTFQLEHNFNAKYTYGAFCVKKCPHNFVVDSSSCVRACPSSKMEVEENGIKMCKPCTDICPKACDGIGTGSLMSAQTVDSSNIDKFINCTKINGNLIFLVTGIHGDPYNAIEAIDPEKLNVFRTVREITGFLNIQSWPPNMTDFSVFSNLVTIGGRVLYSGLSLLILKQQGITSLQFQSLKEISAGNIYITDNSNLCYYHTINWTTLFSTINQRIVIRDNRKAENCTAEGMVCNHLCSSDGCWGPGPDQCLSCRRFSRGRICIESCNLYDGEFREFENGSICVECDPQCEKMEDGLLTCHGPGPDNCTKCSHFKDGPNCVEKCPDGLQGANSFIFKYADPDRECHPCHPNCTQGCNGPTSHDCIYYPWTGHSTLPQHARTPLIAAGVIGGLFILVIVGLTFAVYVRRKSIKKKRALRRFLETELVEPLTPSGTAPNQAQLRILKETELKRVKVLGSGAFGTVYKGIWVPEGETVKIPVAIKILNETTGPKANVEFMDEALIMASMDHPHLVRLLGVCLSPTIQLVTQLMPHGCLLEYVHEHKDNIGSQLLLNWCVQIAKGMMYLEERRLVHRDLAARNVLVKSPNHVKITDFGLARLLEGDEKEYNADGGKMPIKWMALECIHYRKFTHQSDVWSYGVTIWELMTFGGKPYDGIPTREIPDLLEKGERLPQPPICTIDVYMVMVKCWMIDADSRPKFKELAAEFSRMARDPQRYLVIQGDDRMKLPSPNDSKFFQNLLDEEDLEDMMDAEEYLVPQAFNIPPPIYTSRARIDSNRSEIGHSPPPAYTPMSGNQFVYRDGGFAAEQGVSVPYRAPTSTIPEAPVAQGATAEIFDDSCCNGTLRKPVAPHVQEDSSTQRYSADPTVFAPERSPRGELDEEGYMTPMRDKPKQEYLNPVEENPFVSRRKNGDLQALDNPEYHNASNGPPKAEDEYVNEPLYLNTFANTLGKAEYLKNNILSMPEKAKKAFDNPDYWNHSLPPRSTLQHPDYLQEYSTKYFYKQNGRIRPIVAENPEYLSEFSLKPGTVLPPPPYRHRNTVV

Structure (SMILES)	IC50 (ERBB4 [1]) [nM]	CRE sensor response at high compound concentration (barcoded) [2]	IC50 (HTR2A EGR1p) [nM]	IC50 (HTR2A NFAT) [nM]	IC50 (EGFR EGR1p) [nM]	ERBB4 NFAT IC50 (ERBB4 NFAT)	IC50 (HTR2A) [nM]	IC50 (ERBB2/3 EGR1p) [nM]	IC50 (ERBB2/3) [nM]	IC50 (ERBB4 EGR1p) [nM]	further results
C=CC(=O)N1CCC(Oc2cc3c(Nc4ccc(Cl)c(Cl)c4F)ncnc3cc2OC)CC1 [Poziotinib, Poziotinib (HM781-36B)]	3.11	upregulation of the CRE sensor; also recorded: upregulated CRE sensor response	1.14	16	0.89	no effect (EGFR, ERBB2/3, ERBB4) - 0.016 µM (HTR2A)	4.56	0.79	2.63	0.87	IC50 (ERBB4 [3]): 23.5 nM; IC50 [4]: 2.5 to 6.2 nM; effect on CRE sensor activity (luciferase), in words (CRE sensor; PC12 cells, CRE sensor only, stimulation mix): CRE sensor activation at high compound concentrations; EC50 (CRE sensor; Rattus norvegicus, PC-12): 1640 nM; IC50 (NCI-H1975 cells): 1.7 to 8.78 nM; effect on cAMP levels (GloSensor) (cAMP): increase of cAMP; EC50 (cAMP; Rattus norvegicus, PC-12, 0.25 h, constant stimulation mix, 15 min, cAMP increase): 2910 nM; compound concentration resulting in elevated cAMP (GloSensor) (cAMP; stimulation mix): ≥ 3 µM; EGFR NFAT IC50 (EGFR NFAT; PC12 cells, constant EGF 30 ng/mL, EGFld 10 ng/mL, serotonin 1 μM, 6 h, barcode readout, relative IC50): no effect (EGFR, ERBB2/3, ERBB4) - 0.016 µM (HTR2A); effect on calcium levels (Fluo-4 AM) (calcium): but not calcium levels
C=CC(=O)N[C@H]1C=C(C)c2c(-c3cnc4ccccc4c3)c3c(N)ncnc3n2C1 [TAS6417, TAS6417 (Zipalertinib)]	91	upregulated CRE sensor response	193	848	95	no effect (EGFR, ERBB2/3, ERBB4) - 0.848 µM (HTR2A, small effect)	444	267	206	55	ERBB2/3 NFAT IC50 (ERBB2/3 NFAT): no effect (EGFR, ERBB2/3, ERBB4) - 0.848 µM (HTR2A, small effect); IC50_ERBBpro, cAMP/Ca2+ (CRE sensor) ([2]; ERBBprofiler, no receptor named in the cell): no effect; IC50 (EGFR [5]): 92 nM; IC50 (EGFR [6]): 368 nM; IC50 (ERBB4 [7]): 4 nM; IC50 (ERBB2): 390 nM; EGFR NFAT IC50 (EGFR NFAT): no effect (EGFR, ERBB2/3, ERBB4) - 0.848 µM (HTR2A, small effect)
